Assay results reported in ChEMBL document CHEMBL5390243, “Catecholamine Derivatives: Natural Occurrence, Structural Diversity, and Biological Activity” (J Nat Prod, 2023).

Columns and labels:
RAW264.7 [1] = experiment: Antiinflammatory activity against LPS-induced mouse RAW264.7 cells assessed as reduction in IL-6 mRNA expression at 10 uM by RT-PCR analysis; type: functional; parameters: scale not given: the % may be the effect or the level left
RAW264.7 [2] = experiment: Anti-inflammatory activity against mouse RAW264.7 cells assessed as inhibition of LPS-induced NO production at 100 ng/ml pretreated with compound for 2 hrs followed by LPS stimulation and measured after 24 hrs by Griess reagent based analysis; type: functional; parameters: scale not given: the % may be the effect or the level left; conditions: time 26 hrs
Acetylcholinesterase [3] = biological target: T1, Acetylcholinesterase (Homo sapiens, UniProt P22303); experiment: Inhibition of human AchE using acetylthiocholine iodide as substrate incubated for 20 mins by Ellman's assay; conditions: read-out: EC50 (the source's name)
Acetylcholinesterase [4] = biological target: T1, Acetylcholinesterase; experiment: Inhibition of Acetylcholinesterase (unknown origin) using acetylthiocholine iodide as substrate incubated for 20 mins by Ellaman's method
[5] = biological target: Tyrosine-protein kinase JAK3 (Homo sapiens, UniProt P52333); experiment: Inhibition of JAK3 (unknown origin) preincubated for 1 hr followed by substrate addition and measured after 1 hr in the presence of ATP by FRET-based Z'-Lyte assay
HeLa = experiment: Cytotoxicity against human HeLa cells assessed as reduction in cell viability measured after 24 hrs by MTT assay; type: functional, cell-based
[6] = Immunosuppressive activity in Kunming mouse splenocyte assessed as reduction in ConA-stimulated T-lymphocytes proliferation at 20 uM incubated for 72 hrs by CCK-8 assay relative to control; type: functional, T-cell; parameters: scale not given: the % may be the effect or the level left
[7] = biological target: Glycogen synthase kinase-3 beta (Homo sapiens, UniProt P49841); experiment: Inhibition of N-terminal His6-tagged human recombinant GSK3beta expressed in baculovirus-infected Sf21 cells incubated for 60 mins in presence of ATP by ADP-glo analysis
[8] = biological target: Cyclin-dependent kinase 5/CDK5 activator 1 (Homo sapiens, UniProt Q00535); experiment: Inhibition of N-terminal full length human recombinant CDK5/p25 expressed in baculovirus-infected Sf21 cells incubated for 60 mins in presence of ATP by kinase-glo luminescent assay
[9] = biological target: Casein kinase I isoform delta (Homo sapiens, UniProt P48730); experiment: Inhibition of N-terminal GST-tagged human recombinant CK1delta (1 to 294 residues) expressed in Escherichia coli incubated for 60 mins in presence of ATP by Kinase-glo luminescent assay
Helicoverpa armigera = experiment: Antifeedant activity against Helicoverpa armigera at 100 uM relative to control; type: functional
Acetylcholinesterase [10] = biological target: T1, Acetylcholinesterase; experiment: Inhibition of AChE (unknown origin) by Ellman's method
Cholinesterase = Cholinesterase (Homo sapiens, UniProt P06276); experiment: Inhibition of butyrylcholinesterase (unknown origin)
[11] = Antioxidant activity assessed as DPPH radical scavenging activity incubated for 20 mins by spectrophotometric method; type: functional
[12] = biological target: Beta-1 adrenergic receptor (Homo sapiens) (UniProt P08588); experiment: Agonist activity at ARbeta1 (unknown origin) expressed in CHO-K1 cells co-expressing G alpha 15 assessed as inhibition of isoproterenol induced calcium response upto 100 uM incubated for 10 mins by calcium mobilization assay relative to control; type: functional, cell-based; parameters: Activity: scale not given: the % may be the effect or the level left
[13] = Antioxidant activity assessed as DPPH radical scavenging activity; type: functional
SGC-7901 = experiment: Cytotoxicity against human SGC-7901 cells assessed as reduction in cell viability measured after 72 hrs by MTT assay; type: functional, cell-based; conditions: SGC-7901, 72 h
RAW264.7 [14] = experiment: Anti-inflammatory activity against mouse RAW264.7 cells assessed as inhibition of LPS-induced NO production at 10 uM preincubated with compound for 2 hrs followed by LPS stimulation and measured after 24 hrs by Griess reagent based analysis; type: functional, cell-based
[15] = biological target: Alpha-2B adrenergic receptor (Homo sapiens, UniProt P18089); experiment: Binding affinity to alpha2B receptor (unknown origin) assessed as inhibition constant
RAW264.7 [16] = experiment: Anti-inflammatory activity against mouse RAW264.7 cells assessed as inhibition of LPS-induced nitric oxide production at 50 uM preincubated for 2 hrs with compound followed by LPS-stimulation and measured after 24 hrs by Griess reagent based analysis; type: functional, cell-based
RAW264.7 [17] = experiment: Antiinflammatory activity in LPS-induced mouse RAW264.7 cells assessed as reduction in COX-2 level at 100 uM pretreated for 1 hr followed by LPS stimulation and measured after 48 hrs by ELISA relative to control; type: functional; parameters: scale not given: the % may be the effect or the level left; conditions: time 49 hrs
[18] = Metal chelating activity assessed as iron chelation by CAS assay

T1 sequence (P22303 whole entry): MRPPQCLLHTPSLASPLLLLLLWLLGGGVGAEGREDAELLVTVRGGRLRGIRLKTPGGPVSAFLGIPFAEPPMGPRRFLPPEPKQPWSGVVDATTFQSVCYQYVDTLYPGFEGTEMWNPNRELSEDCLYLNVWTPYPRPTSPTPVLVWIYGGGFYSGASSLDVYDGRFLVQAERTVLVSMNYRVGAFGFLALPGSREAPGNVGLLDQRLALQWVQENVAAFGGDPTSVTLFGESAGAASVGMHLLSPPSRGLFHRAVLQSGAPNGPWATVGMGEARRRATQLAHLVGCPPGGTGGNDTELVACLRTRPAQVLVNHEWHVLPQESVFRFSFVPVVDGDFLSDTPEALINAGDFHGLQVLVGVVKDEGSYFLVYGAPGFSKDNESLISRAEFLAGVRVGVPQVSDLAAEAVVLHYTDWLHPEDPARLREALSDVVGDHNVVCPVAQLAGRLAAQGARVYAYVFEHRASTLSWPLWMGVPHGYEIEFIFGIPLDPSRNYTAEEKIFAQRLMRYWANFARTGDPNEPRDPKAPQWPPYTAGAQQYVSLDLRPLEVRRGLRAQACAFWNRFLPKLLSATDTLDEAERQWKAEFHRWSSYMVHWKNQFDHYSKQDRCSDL
Chain of Beta-1 adrenergic receptor (Homo sapiens) (P08588 whole entry, looked up): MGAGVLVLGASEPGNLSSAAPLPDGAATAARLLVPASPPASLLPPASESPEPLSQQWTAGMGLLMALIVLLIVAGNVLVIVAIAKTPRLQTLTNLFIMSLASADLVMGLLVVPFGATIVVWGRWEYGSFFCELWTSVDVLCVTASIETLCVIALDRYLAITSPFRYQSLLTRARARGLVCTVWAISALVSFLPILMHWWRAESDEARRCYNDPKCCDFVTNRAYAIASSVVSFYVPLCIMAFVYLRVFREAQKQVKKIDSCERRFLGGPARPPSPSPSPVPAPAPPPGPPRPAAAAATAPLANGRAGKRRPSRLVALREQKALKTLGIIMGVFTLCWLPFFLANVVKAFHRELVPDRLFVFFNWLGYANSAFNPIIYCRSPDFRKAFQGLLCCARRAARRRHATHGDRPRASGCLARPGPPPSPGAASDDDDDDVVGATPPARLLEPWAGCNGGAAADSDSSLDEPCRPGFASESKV
Chain of Casein kinase I isoform delta (P48730 whole entry, the tested form may be a part, canonical isoform): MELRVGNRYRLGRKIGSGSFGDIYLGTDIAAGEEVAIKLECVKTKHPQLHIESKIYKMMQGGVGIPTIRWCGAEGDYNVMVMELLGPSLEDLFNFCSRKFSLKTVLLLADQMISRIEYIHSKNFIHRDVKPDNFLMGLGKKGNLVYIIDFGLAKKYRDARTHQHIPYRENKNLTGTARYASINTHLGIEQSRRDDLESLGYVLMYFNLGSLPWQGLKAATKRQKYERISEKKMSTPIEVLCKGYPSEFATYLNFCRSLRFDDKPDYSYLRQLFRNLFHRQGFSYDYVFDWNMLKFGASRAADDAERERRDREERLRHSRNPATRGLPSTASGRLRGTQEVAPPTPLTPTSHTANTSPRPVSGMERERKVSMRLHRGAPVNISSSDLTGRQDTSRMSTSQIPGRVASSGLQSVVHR
Chain of Alpha-2B adrenergic receptor (P18089 whole entry): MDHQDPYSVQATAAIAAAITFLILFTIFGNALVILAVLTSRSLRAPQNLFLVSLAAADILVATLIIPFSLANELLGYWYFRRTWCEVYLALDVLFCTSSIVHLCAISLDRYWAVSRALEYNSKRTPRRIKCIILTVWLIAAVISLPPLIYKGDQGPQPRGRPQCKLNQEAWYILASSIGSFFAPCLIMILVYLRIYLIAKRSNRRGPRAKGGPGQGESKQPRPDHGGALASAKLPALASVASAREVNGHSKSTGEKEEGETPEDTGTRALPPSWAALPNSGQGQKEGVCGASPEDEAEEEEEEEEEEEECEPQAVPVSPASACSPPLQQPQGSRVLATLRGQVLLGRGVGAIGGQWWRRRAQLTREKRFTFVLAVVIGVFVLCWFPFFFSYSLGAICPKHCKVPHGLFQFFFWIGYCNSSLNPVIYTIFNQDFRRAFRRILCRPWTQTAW
Chain of Glycogen synthase kinase-3 beta (P49841 whole entry): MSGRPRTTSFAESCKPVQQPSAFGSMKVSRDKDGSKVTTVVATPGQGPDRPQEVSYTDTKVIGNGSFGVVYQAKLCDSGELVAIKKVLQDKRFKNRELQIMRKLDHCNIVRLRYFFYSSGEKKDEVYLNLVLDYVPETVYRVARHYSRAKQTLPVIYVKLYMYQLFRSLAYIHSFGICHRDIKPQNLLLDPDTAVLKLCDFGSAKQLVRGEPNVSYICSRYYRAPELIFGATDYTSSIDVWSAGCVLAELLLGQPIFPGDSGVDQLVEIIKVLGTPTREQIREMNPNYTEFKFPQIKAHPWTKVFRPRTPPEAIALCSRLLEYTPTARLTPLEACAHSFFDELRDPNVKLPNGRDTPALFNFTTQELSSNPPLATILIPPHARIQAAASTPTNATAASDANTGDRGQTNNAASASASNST
Chain of Cyclin-dependent kinase 5/CDK5 activator 1 (Q00535 whole entry, the tested form may be a part, canonical isoform): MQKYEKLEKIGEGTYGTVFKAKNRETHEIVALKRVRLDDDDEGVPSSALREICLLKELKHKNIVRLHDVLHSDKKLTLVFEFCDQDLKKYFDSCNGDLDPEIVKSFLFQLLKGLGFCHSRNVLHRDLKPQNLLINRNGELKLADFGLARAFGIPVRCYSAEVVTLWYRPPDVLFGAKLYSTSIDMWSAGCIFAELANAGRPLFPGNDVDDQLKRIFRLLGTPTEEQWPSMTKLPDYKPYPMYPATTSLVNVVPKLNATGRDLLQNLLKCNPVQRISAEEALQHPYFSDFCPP
Chain of Cyclin-dependent kinase 5/CDK5 activator 1 (Q15078 whole entry, further chain, the tested form may be a part, canonical isoform): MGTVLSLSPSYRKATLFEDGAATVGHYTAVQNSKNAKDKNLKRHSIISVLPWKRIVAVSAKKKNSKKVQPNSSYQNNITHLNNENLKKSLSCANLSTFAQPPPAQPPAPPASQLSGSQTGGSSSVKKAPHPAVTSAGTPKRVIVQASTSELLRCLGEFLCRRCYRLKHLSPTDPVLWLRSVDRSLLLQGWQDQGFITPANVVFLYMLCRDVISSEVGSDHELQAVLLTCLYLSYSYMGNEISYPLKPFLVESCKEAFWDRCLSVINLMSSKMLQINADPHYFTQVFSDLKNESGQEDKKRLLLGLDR
Chain of Cholinesterase (P06276 whole entry): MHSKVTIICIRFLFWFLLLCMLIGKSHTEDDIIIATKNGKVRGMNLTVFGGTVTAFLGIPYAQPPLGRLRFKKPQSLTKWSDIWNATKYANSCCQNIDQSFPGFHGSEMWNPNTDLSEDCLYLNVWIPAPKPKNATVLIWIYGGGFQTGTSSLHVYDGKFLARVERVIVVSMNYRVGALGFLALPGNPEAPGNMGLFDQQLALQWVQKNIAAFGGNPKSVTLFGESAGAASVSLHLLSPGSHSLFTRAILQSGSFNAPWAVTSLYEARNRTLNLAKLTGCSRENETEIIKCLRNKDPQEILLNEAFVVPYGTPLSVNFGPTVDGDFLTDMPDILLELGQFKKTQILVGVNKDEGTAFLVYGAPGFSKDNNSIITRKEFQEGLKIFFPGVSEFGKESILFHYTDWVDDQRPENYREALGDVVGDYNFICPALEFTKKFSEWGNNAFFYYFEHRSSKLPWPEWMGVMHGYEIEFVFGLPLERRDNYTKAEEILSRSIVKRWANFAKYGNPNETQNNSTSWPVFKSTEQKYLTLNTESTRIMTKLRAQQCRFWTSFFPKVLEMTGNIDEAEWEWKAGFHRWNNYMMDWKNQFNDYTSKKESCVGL
Chain of Tyrosine-protein kinase JAK3 (P52333 whole entry): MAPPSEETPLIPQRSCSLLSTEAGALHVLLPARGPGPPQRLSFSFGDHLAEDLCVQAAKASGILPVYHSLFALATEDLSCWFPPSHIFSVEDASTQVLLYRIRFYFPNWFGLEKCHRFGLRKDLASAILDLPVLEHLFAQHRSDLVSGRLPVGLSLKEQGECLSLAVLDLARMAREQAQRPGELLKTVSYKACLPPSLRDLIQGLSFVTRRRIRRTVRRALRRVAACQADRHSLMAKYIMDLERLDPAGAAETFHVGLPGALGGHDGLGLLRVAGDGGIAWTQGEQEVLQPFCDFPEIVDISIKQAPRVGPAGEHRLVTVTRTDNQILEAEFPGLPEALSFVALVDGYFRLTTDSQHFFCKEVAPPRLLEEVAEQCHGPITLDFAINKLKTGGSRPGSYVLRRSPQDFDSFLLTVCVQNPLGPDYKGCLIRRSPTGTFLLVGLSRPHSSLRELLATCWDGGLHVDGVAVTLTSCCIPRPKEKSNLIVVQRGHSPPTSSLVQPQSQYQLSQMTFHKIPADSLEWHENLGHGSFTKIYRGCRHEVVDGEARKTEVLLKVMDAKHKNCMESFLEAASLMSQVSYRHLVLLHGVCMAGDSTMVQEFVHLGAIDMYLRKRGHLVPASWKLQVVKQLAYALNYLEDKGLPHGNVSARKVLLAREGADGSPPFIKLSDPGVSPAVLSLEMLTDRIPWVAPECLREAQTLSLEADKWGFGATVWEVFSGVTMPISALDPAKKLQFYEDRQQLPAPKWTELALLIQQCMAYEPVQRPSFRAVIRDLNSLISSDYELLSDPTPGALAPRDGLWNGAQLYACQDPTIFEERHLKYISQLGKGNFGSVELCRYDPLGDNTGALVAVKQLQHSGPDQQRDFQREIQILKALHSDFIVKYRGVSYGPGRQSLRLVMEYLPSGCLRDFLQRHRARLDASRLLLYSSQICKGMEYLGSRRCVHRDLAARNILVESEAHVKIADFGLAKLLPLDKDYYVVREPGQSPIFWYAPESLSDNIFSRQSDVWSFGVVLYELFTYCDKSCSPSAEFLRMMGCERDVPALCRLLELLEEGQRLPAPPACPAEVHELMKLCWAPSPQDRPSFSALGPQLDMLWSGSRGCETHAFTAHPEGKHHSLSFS

Compound `COc1cc(/C=C/C(=O)O[C@H]2[C@H](OC[C@H]3O[C@@H](Oc4cc5c(cc4O)C[C@@H](C(=O)O)N5C(=O)/C=C/c4ccc(O)c(OC)c4)[C@H](O)[C@@H](O)[C@@H]3O)O[C@H](CO)[C@@H](O[C@@H]3O[C@H](CO)[C@@H](O)[C@H](O)[C@H]3O)[C@@H]2O)ccc1O` has an Activity (RAW264.7 [1]) of 75.6% and an Activity (RAW264.7 [2]) of 45.2%.

`COc1cc(/C=C/C(=O)N2c3cc(O[C@@H]4O[C@H](CO[C@@H]5O[C@H](CO)[C@@H](O)[C@H](O)[C@H]5OC(=O)/C=C/c5cc(OC)c(O)c(OC)c5)[C@@H](O)[C@H](O)[C@H]4O)c(O)cc3C[C@H]2C(=O)O)ccc1O` showed an Activity (RAW264.7 [1]) of 82.4% and an Activity (RAW264.7 [2]) of 38.9%.

For `O=C(/C=C/c1ccc(O)c(O)c1)n1ccc2cc(O)c(O)cc21`, the IC50 (Acetylcholinesterase [3]) was 44.8 µM.

`COc1cc(O)c2c(c1)C(=O)c1cc(O)c(O)cc1CCN2` showed an IC50 (Acetylcholinesterase [4]) of 46 µM.

In the case of `Cc1cnc(-c2ccc(O)c(O)c2)c(C)n1`, the IC50 [5] is reported as 12.6 µM.

Work on `Oc1cc2c(cc1O)[C@@H](C1=C[C@@]3(O)CC/C=C\CCCCN4CC[C@@H]1[C@]1(C[C@@H]5/C=C\CCCCN5[C@H]13)C4)NCC2` yielded an IC50 (HeLa) of 4.2 µM.

`N[C@@H](CO)C(=O)O` [SERINE] showed an IC50 (Acetylcholinesterase [4]) of 38.3 µM.

With `CC(=O)NCCc1cc(O)c(O)cc1[C@H](NC(C)=O)C(=O)c1ccc(O)c(O)c1` the Activity [6] was 5%.

With `COc1cc2c(cc1O)CCn1c-2c(-c2ccc(O)c(O)c2)c2c3cc(O)c(OC)cc3oc(=O)c21` the IC50 [7] was 3 µM, the IC50 [8] was 1.1 µM and the IC50 [9] was greater than 10 µM.

In the case of `CO[C@H](CNC(=O)/C=C/c1ccc(O)cc1)c1ccc(O)c(O)c1`, the Activity (Helicoverpa armigera) is reported as 61.6%, the EC50 (Acetylcholinesterase [10]) is reported as 23.1 µM and the EC50 (Cholinesterase) is reported as 46.9 µM.

Compound `COC(=O)[C@@H]1Cc2cc(O)c(O[C@@H]3O[C@H](CO)[C@@H](O)[C@H](O)[C@H]3O)cc2N1C(=O)/C=C/c1ccc(O)cc1` has an EC50 [11] of 37.7 µM.

Compound `Oc1cc2c(cc1O)CCN=C2` has an Activity [12] of 24.2%.

`COC(=O)[C@@H]1Cc2cc(O)c(O[C@@H]3O[C@H](CO)[C@@H](O)[C@H](O)[C@H]3O)cc2N1C(=O)/C=C/c1ccc(O)c(OC)c1` gave an EC50 [11] of 21 µM.

For `O=C(/C=C/c1ccc(O)cc1)n1ccc2cc(O)c(O)cc21`, the EC50 [13] was 16.2 µM and the IC50 (Acetylcholinesterase [3]) was 55.1 µM.

In the case of `CC(=O)O[C@H]1C(=O)[C@@]2(C)[C@H]([C@H](OC(=O)c3ccccc3)[C@]3(O)C[C@H](OC(=O)[C@H](O)[C@@H](NC(=O)c4ccccc4)c4ccccc4)C(C)=C1C3(C)C)[C@]1(OC(C)=O)CO[C@@H]1C[C@@H]2O` [PACLITAXEL], the IC50 (SGC-7901) is reported as 0.15 µM.

Compound `OCc1ccc(C2=NCCc3cc(O)c(O)cc32)o1` has an Activity [12] of 13.7%.

Work on `C[C@@H]1C[C@H]2[C@@H]3CCC4=CC(=O)C=C[C@]4(C)[C@@]3(F)[C@@H](O)C[C@]2(C)[C@@]1(O)C(=O)CO` [DEXAMETHASONE] yielded an IC50 (RAW264.7 [14]) of 2 µM.

`COc1cc(CCN(C)C)c2c(c1OC)SC(CCNC(=N)N)(C1=NCCc3cc(O)c(O)cc31)S2` (stereo unspecified) showed a Ki [15] of 5.9 µM.

Work on `COc1cc(/C=C/C(=O)n2ccc3cc(O)c(O)cc32)ccc1O` yielded an EC50 [13] of 13.9 µM and an IC50 (Acetylcholinesterase [3]) of 46.8 µM.

With `O=C(O)[C@@H]1Cc2cc(O)c(O[C@@H]3O[C@H](CO[C@@H]4O[C@H](CO)[C@@H](O)[C@H](O)[C@H]4O)[C@@H](O)[C@H](O)[C@H]3O)cc2N1C(=O)/C=C/c1ccc(O[C@@H]2O[C@H](CO)[C@@H](O)[C@H](O)[C@H]2O)cc1` the IC50 (RAW264.7 [16]) was 53.1 µM.

Work on `O=C1c2c(ccc(O)c2O)CCn2cccc21` yielded an IC50 (Acetylcholinesterase [4]) of 50.5 µM.

`CS(=O)(=O)Nc1ccc([N+](=O)[O-])cc1OC1CCCCC1` [NS-398] gave an Activity (RAW264.7 [17]) of 97.1%.

`NC[C@H](CCCCNC(=O)c1cccc(O)c1O)N1C(=O)c2c(ccc(O)c2O)[C@@H](c2ccccc2)[C@]1(O)C(=O)O` gave an EC50 [18] of 28 µM.
